Reference: patent US9119842B2, “Therapeutic meso-biliverdin IXα compositions and associated methods” (Utah State University, priority 2012, dated 2015)

What was measured:
[1] = test system: HRT-18 colon cancer cells; assay: HRT-18 colon cancer cell proliferation in vitro; format: cell-based; details: 1, 10 and 100 μM vs PBS control; example in present tense
Description: (§1) HRT-18 cells are seeded in 6-well plates in a concentration of 25×10^4 cells per well. After 24 hours, incubation, cells are treated with MBV IXα (1, 10, and 100 μM) or phosphate buffered saline (PBS) as a control. Cells are washed, detached with trypsin and resolved in 1 mL of growth media. 100 μL of […] are then analyzed for cell number, viability and cell size. In a xenograft colonic tumor model (see Ollinger et al., Bilirubin Inhibits Tumor Cell Growth via Activation of ERK, Cell Cycle 6:3078-3085 (2007)), 2.5×10^6 HRT 18 colon cancer cells are injected subcutaneously into the lower flank of BALB/c nude mice. At 14 days, MBV treatment is begun by injection of 1, 10 and 100 mg/kg body weight or PBS (controls) twice daily intraperitoneally and tumor diameters are measured daily using a caliper.

[2] = test system: HRT 18 colon cancer cells xenograft; assay: Xenograft colonic tumor model; format: in vivo, BALB/c nude mice; details: 1, 10 and 100 mg/kg twice daily intraperitoneally vs PBS; example in present tense
Description: as §1

[3] = test system: Rat thoracic aortic vascular smooth muscle (A7r5) cells; assay: Suppression of angiotensin II-induced inflammation in A7r5 cells (superoxide anion, NADH/NADPH oxidase); format: cell-based; details: angiotensin II-treated A7r5 cells; example in present tense
Description: Rat thoracic aortic vascular smooth muscle (A7r5) cells cultured in Dulbecco's modified Eagle's medium supplemented with 10% fetal calf serum and 2 mM glutamine are exposed to various concentrations of angiotensin II and MBV for various lengths of time before harvesting. The cells are scraped into balanced salt solution, washed twice by centrifugation, and finally suspended at a density of 2×10^6 cells per mL in the same solution containing 10 mM glucose and 1 mg per mL bovine serum albumin. Superoxide anion levels (of suspensions with 9×10^5 cells) are measured with a luminometer and a commercial luminogen-based detection kit (LumiMax, Agilent Technologies. Inc.).
Angiotensin II and MBV-treated cells suspended in phosphate-buffered saline (with protease inhibitors) are disrupted at ice temperature using a Dounce homogenizer. The cell extracts are fractionated into microsomal membrane and cytosol fractions by standard differential centrifugation procedures. Microsomes, containing plasma and mitochondrial membranes, are recovered as pellets after centrifugation at 29,100 g for 20 min at 4° C. NADH/NADPH oxidase activities of the microsomal fractions are measured with a luminometer and a commercial luminogen-based kit (LumiMax, Agilent Technologies. Inc.).

db/db and obese mice = assay: Glucose tolerance in type 2 diabetes, db/db and obese mice; format: in vivo; details: example in present tense
Description: MBV (2, 20 and 100 mg kg^−1 daily) is orally administered to 5-week-old db/db and obese mice for 4 weeks. Control mice are given the same feed without added MBV. After 4 weeks, glucose tolerance and insulin tolerance tests are performed. See Ikeda et al., Biliverdin protects against the deterioration of glucose tolerance in db/db mice, Diabetologia 54:2183-2191 (2011). Insulin content is evaluated by immunostaining and ELISA. Oxidative stress markers (8-hydroxy-2′-deoxyguansosine and dihydroethidium staining) and expression of […] are evaluated in isolated islets.

[4] = test system: pancreata / islet cells of donor rats; assay: Islet cell yields after treatment of donor pancreata; format: in vivo, rat (Lewis); details: for Islet yield: P<0.05 vs control; for Islet yield at 100 μM relative to 10 μM: 100 μM through the pancreatic duct
Description: MBV and BV IXα (obtained from Frontier Scientific, Inc., Logan Utah) (both at 1, 10, or 100 μM) were administered to IVC-dissected animals through the pancreatic duct at 37° C. Control animals received no treatment. Pancreata were removed from donor rats (Lewis, BW>300 g), incubated with University of Wisconsin solution and preserved using the two-layer method. See Ito et al., Improvement of canine islet yield by donor pancreas infusion with a p38MAPK inhibitor, Transplantation 86(2): 321-329 (2008). After 20 to 22 hours, islet cells were isolated using the 2-step digestion method after distention with collagenase and then purified by discontinuous Ficoll gradient centrifugation in a COBE 2991 cell processor. See Matsumoto et al., Improvement of pancreatic islet cell isolation for transplantation, Proc. (Bayl. Univ. Med. Cent.) 20(4): 357-362 (2007). Islet cells were counted microscopically and the numbers converted to IEQ (number of islets equivalent to 150 um in diameter.

[5] = test system: transplanted islet cells in recipient rats; assay: Treatment of donor pancreata followed by islet cell autotransplantation; format: in vivo, rat (Lewis)
Description: Pancreata removed from donor rats (Lewis, BW>300 g) were infused with University of Wisconsin solution containing MBV or BV IXα at 1, 10, or 100 μM through the pancreatic duct and preserved using the 2-layer method in Hank's balanced salt solution containing 5% autologous serum as described in Example 5. After 20 to 22 hours, islets were isolated and 3000 IEQ/kg were autotransplanted by infusion into the portal vein of the corresponding rat.

[6] = biological target: T1, recombinant human liver BVR (Homo sapiens, UniProt P53004); assay: BVR enzyme assay (Biliverdin Reduction Kit); format: biochemical; details: 10-fold dilution of 100 μg mL^−1, enzyme and NADPH, spectrophotometric 300-800 nm, up to 360 minutes
T1 construct: purchased Sigma-Aldrich (St. Louis, Mo.) CS1100; host or cells: Escherichia coli
T1 sequence (P53004 3-296): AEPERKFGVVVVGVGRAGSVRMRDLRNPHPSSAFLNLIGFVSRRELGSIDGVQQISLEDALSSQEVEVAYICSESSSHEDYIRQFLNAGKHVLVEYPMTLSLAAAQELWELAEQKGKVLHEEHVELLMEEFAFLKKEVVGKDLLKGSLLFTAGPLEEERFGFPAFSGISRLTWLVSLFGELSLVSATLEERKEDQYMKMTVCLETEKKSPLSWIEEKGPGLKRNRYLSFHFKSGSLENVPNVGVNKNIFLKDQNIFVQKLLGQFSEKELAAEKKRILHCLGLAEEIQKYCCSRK
Description: The Sigma-Aldrich (St. Louis, Mo.) Biliverdin Reduction Kit (catalog #CS1100) and method was used to determine biliverdin reductase (“BVR”) activities with MBV, BV IXα, or phycocyanobilin as substrates. The kit-supplied enzyme was human liver BVR expressed in a recombinant Escherichia coli strain. Before use, MBV, BV IXα, or phycocyanobilin, each at 100 μg mL^−1 in methanol, were diluted 10-fold in the kit-supplied assay buffer, mixed with enzyme and NADPH, and conversion to mesobilirubin IXα, bilirubin IXα, or phycocyanobilirubin was measured spectrophotometrically between 300 and 800 nm for up to 360 minutes.

[7] = 1 μM through the pancreatic duct
[8] = 10 μM through the pancreatic duct
[9] = infusion of pancreata through the duct before preservation

Compound	HRT-18 colonic cell proliferation in vitro [1]	Xenograft tumor formation in vivo [2]	Angiotensin II-induced inflammatory processes (NADH/NADPH oxidase activation, superoxide anion production) [3]	Development of hyperglycemia and glucose intolerance (db/db and obese mice; 2, 20 and 100 mg kg^−1 daily orally, 4 weeks)	Levels of oxidative stress markers and NADPH oxidase activities (db/db and obese mice; oral feeding 4 weeks, compared to controls)	Apoptosis and Bax expression in islets from db/db mice (db/db and obese mice; oral feeding 4 weeks)	Insulin levels and Pdxl expression (db/db and obese mice; oral feeding 4 weeks)	Increase of islet yield over non-treated controls ([4]; 1 μM) [fold]	Islet yield [4, 7] [IEQ/g]	Increase of islet yield over non-treated controls ([4]; 10 μM) [fold]	Islet yield [4, 8] [IEQ/g]	Islet yield at 100 μM relative to 10 μM [4]	Islet cell yields (IEQ values) assessed by laser scanning cytometry ([5]; MBV-treated donor pancreata vs untreated control pancreata)	Tumor necrosis factor α expression (real-time RT-PCR) ([5]; MBV-treated group vs controls)	Plasma C peptide levels after glucagon challenge ([5]; animals receiving MBV-treated islets vs islets from untreated control pancreata)	Adverse effect on islet function [5, 9]	Islet cell apoptosis [5, 9]	Glycemia of recipient rats ([5]; rats transplanted with MBV-treated islets vs untreated islets)	BVR activity with the compound as substrate (conversion to reduced product) [6]
meso-biliverdin IXα [MBV]	reduces	reduces	suppresses these inflammatory processes	at least partially prevents	lower and normal compared to those of controls	decreases	increases	1.87	1599±475	1.54	1318±804	did not increase islet yields beyond those with 10 μM concentration	higher	significantly lower	higher	no adverse effect on islet function	prevented islet cell apoptosis	more euglycemic	kinetics that resembled those for BV IXα conversion to bilirubin IXα
C/C=C1/C(=C\c2[nH]c(/C=C3N=C(/C=C4/NC(=O)C(CC)=C4C)C(C)=C/3CCC(=O)O)c(CCC(=O)O)c2C)NC(=O)C1C (stereo not shown) [phycocyanobilin, reference compound]	–	–	–	–	–	–	–	–	–	–	–	–	–	–	–	–	–	–	poor and relatively inactive catalytic substrate
C=CC1=C(C)/C(=C\c2[nH]c(/C=C3N=C(/C=C4/NC(=O)C(C)=C4C=C)C(C)=C/3CCC(=O)O)c(CCC(=O)O)c2C)NC1=O [BV IXα, Biliverdin (“BV”) IXα, reference compound]	–	–	–	–	–	–	–	1.04	1328±358	1.24	1616±451	did not increase islet yields beyond those with 10 μM concentration	–	–	–	–	–	–	–
